“Also recorded” adds a separate entry of the source.
How the values were obtained:
[1] = literature; cited from earlier work
[2] = humans; cited from earlier work
PCP RECEPTOR = test: PCP receptor binding assay ([3H]-TCP displacement, brain membranes); parameters: species or system guinea-pig (male Hartley); conditions: Table 1; mean ± error (n); read-out: PCP RECEPTOR IC50
How it was run: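 Guinea-pig brain-plus-cerebellum membranes (1.7 mg protein) were incubated 1 h at 23° C with competitor. σ sites used 2 nM [3H]-d-SKF-10,047 in 0.1 M Tris pH 7.4, with 0.1 mM d-SKF-10,047 for nonspecific binding. PCP sites used 1 nM [3H]-TCP in 5 mM Tris pH 7.4, with 0.1 mM phencyclidine for nonspecific binding. Filter-bound radioactivity was counted.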

SIGMA RECEPTOR = biological target: T1, SIGMA RECEPTOR (Cavia porcellus, UniProt Q60492); test: Sigma receptor binding assay ([3H]-d-SKF-10,047 displacement, brain membranes); parameters: species or system guinea-pig (male Hartley); conditions: Table 1; slope of dose response curve
T1 construct: Two milliter aliquots of the brain membrane preparation, containing 1.7 mg of protein; tissue Pel-Freeze (Rogers, Arkansas); host or cells: guinea-pig brains plus cerebella, membranes
How it was run: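 Guinea-pig brain-plus-cerebellum membranes (1.7 mg protein) in 0.1 M Tris-HCl pH 7.4 incubated 1 h at 23°C with 2 nM [3H]-d-SKF-10,047 and competitor, quadruplicate. Nonspecific binding defined by 0.1 mM d-SKF-10,047; bound ligand collected on GF/C filters, counted by liquid scintillation.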

[3] = test system: climbing behavior in mice; conditions: cited from earlier work
[4] = test system: conditioned avoidance responses in rat; conditions: cited from earlier work
σ receptors = conditions: literature; cited from earlier work
σ receptor = conditions: rat spinal cord and brain membranes; cited from earlier work
[5] = clinical trials; cited from earlier work
[6] = test system: postsynaptic dopamine receptors; conditions: mesolimbic area; cited from earlier work
σ binding sites = conditions: microinjections into red nucleus and substantia nigra; cited from earlier work

T1 sequence (Q60492 whole entry): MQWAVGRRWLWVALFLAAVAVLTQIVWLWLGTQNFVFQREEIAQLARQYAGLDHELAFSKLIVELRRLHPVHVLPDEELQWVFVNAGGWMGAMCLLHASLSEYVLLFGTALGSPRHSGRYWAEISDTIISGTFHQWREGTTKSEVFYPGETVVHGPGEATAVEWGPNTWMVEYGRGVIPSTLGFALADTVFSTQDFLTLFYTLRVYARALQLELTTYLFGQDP

SMILES	motor and behavioral effects [1]	psychotic reactions [2]	IC50 (PCP RECEPTOR) [nM]	SIGMA RECEPTOR SLOPE (SIGMA RECEPTOR)	cataleptic state ([3]; associated with EPS)	climbing behavior [3]	conditioned avoidance responses [4]	affinity / binding at σ receptors (in words) (σ receptors)	inhibition of specific binding of NAN (σ receptor)	clinical antipsychotic effects [5]	action at postsynaptic dopamine receptors [6]	contralateral circling behavior (σ binding sites)
c1ccc(C2(N3CCCCC3)CCCCC2)cc1 [Compound 1, 1-(1-phenylcylohexyl)piperidine, reference compound]	alter gross motor activity and spatial alternation performance and to induce stereotypic movements	causes psychotic reactions such as hallucinations, thought disorders and paranoid delusions similar to an acute schizophrenic episode	45 ± 5	0.95 ± 0.12								
C[C@@H]1CN(CCCn2c3ccccc3c3ccccc32)C[C@H](C)N1 [rimcazole, cis-9-[3-(3,5-dimethyl-1-piperazinyl)propyl]carbozole]					without producing the cataleptic state	antagonize climbing behavior in mice	did not influence conditioned avoidance responses in rat	potent and selective σ receptor ligands; also recorded: high-affinity, σ-selective	competitively inhibit specific binding of the σ receptor ligand NAN	display clinical antipsychotic effects	did not exert its action at the level of postsynaptic dopamine receptors in the mesolimbic area	
Cc1ccccc1NC(=N)Nc1ccccc1C [DTG, 1,3-di-o-tolylguanidine]								bind to σ receptors				produce vigorous contralateral circling behavior
